From US8546373B2 (Biogenic Innovations, LLC, priority 2009, dated 2013)

System: Streptococcus pneumonia
Details: 7 h, 5 %

C[S+](C)[O-] [DMSO, dimethyl sulfoxide]
reduction in viability: approximately 25%
